Test results taken from publication PMC12454639, “Direct disassembly of α-syn preformed fibrils into α-syn monomers by an all-D-peptide” (NPJ Parkinson's Disease, 2025).

Key:
PC12 cells = format: cell-based; details: 15 µM peptide with 30 nM PFF; n = 4
Method: PC12 cells (Leibniz Institute DSMZ, GE) were cultivated on collagen A-coated (Biochrom GmbH, GE) tissue culture flasks in RPMI 1640 medium supplemented with 5% fetal calf serum and 10% horse serum in a 95% humidified atmosphere with 5% CO2 at 37 °C. 10,000 cells per well in a volume of 100 µl were seeded on collagen A-coated 96-well plates (Thermo Fisher Scientific, USA) and were incubated for 24 h at 37 °C and 300 rpm in a thermo cycler. […] In addition, 15 µM of the peptides alone, cell media, buffer without peptides and 0.1% Triton X-100 (cytotoxic compound) served as controls. After further incubation in a 95% humidified atmosphere with 5% CO2 at 37 °C for 24 h, cell viability was measured using the Cell Proliferation Kit I (MTT) (Roche Applied Science, CH) according to the manufacturer’s protocol. The MTT formazan product was quantified by measuring the absorbance at 570 nm corrected by subtraction of the absorbance at 660 nm in a FLUOStar Optima plate reader (BMG Labtech, GE). All results were normalized to untreated cells grown in medium only. Test on significance was performed using one-way ANOVA with Bonferroni post hoc analysis (OriginPro 2020, OriginLab, USA; n = 4).
Test on significance was performed using one-way ANOVA with Bonferroni post hoc analysis: * […], *** p ≤ 0.01. Mean data are shown with ±SD (n = 4). While the cell viability was reduced by 50 % in the presence of 30 nM soluble small α-syn PFF alone, no toxic effect of the compounds on PC12 was observed. […] Thus, similar cell viability saving effects were found for SVD-1a using a 30-fold lower concentration.

small α-syn PFF seeds = test: Seeded ThT aggregation assay; format: biochemical; details: discussion statement
Method: The Thioflavin T (ThT) assay is commonly used for the visualization of α-syn fibrilization, since the dye ThT is able to bind to the amyloidogenic cross-β-sheet proportions of fibril structures. Recombinant α-syn was thawed on ice and centrifuged for 30 min at 21,000 × g and 4 °C. The concentration of the supernatant was determined as described previously. Lyophilized D-peptides were thawed at RT for 1 h and dissolved in 500 µl PBS pH 7.4. After centrifugation for 30 min at 21,000 × g the supernatant concentration was determined by UV–vis using the corresponding extinction coefficient at A280. All ThT assay experiments were performed at 37 °C with 15 µM ThT and 0.05% sodium azide (w/v) in PBS pH 7.4 if not otherwise stated. ThT fluorescence was monitored with bottom optics at λex = 448 nm and λem = 482 nm in a fluorescence plate reader with orbital averaging on 3 mm (Clariostar or Polarstar Optima, BMG labtech, GE). Prior to measurement start, 120 µl sample solution was transferred to a non-binding 96-half area well plate with transparent flat bottom (Corning, USA). One borosilicate glass bead (d = 3.0 mm, Hilgenberg, GE) was added to each well for all de novo aggregation assays. For seeded aggregation assays, no bead was used, and samples were incubated under quiescent conditions. Wells that surrounded the sample wells were filled with the same volume of buffer to improve heat distribution. Experiments were performed with five replicates (n = 5) if not otherwise stated.
ThT assay was used for different purposes. […] Lag-time and t½ were calculated as described previously. […] Measurements were taken every 5 min (n = 3).
small α-syn PFF seeds were prepared as described previously with some modifications. First, insoluble PFF were produced by incubation of 300 µM recombinant α-syn in a LoBind reaction tube (Eppendorf GmbH, GE) with one borosilicate glass bead (d = 3.0 mm; Hilgenberg, DE) in 20 mM NaPi, pH 7.0, 150 mM NaCl, 0.05% (w/v) sodium azide for one week at 37 °C. The insoluble PFF were harvested by ultracentrifugation at 100,000 × g for 30 min at 4 °C, and the pellet was washed several times with 20 mM NaPi, pH 7.0, 150 mM NaCl. The monomer equivalent concentration was determined by measuring the α-syn concentration in the supernatant after the first centrifugation and subtracting it from the start concentration for fibrilization. […]
ThT fluorescence progression was measured in a 96-well non-binding half-area plate (Corning, USA) with a FLUOStar platereader (BMG labtech, GE) at λex = 448 nm and λem = 482 nm. […] 10 µM α-syn monomer was incubated with 5, 10 and 20 µM peptide at 37 °C, adding one borosilicate glass bead per well (d = 3.0 mm, Hilgenberg, GE) with continuous orbital shaking at 300 rpm in between reads. […]

[1] = test system: α-synA53T–YFP (HEK293T cells); test: Seeded intracellular aggregation in α-synA53T–YFP cells; format: cell-based, human; details: day 3
Text: Fig. 5 SVD-1a inhibits seeded α-syn aggregation in cells. To validate the inhibitory effect of SVD-1a in cells, we used the α-synA53T–YFP cell system, which stably expresses human α-syn with the familial A53T mutation fused to YFP in HEK293T cells and enables fluorescence-based detection of aggregates that show up as highly fluorescent spots within the cells, clearly above background, intracellularly after seeding with small α-syn PFF seeds. In order to avoid interference of the peptide with the uptake of small α-syn PFF seeds, we performed a two-step transfection starting with a first transfection of the peptide and a second transfection with PFFs. […] To quantify the number of cells with aggregates in our images and to avoid experimental bias, we used a fully automated algorithm for image analysis. […] One asterisk denotes p values < 0.05 and three asterisks a p value < 0.001. Error bars indicate standard deviation. […] Treatment with increasing concentrations of SVD-1a, here imaged at 25 µM, led to a concentration-dependent reduction in the number of cells with aggregates (H-J). Panels B, E, and H show nuclei stained with Hoechst 33342. Panels C, F, and I show αSynA53T–YFP fluorescence. Panels D, G, and J show merged images. The scale bar in J represents 100 µm and applies to all panels. The viability of the cells was not reduced by transfection with seeds or in SVD-1a, as shown in Supplementary Fig. 15. Confirmation that highly fluorescent aggregates contain α-syn is shown in Supplementary Fig. 14 by co-immunostaining with syn-211 antibody, anti-α-syn (phospho S129) antibody and 5G4 antibody.
A construct encoding full-length A53T-mutated human α-syn fused with YFP at the C-terminus was synthesized and introduced into the pMK–RQ expression vector (GeneArt; Thermo Fisher Scientific, USA). The α-synA53T–YFP construct was subcloned into the pIRESpuro3 vector (Clontech; Takara Bio, JPN) using NheI (5′) and NotI (3′) restriction sites. HEK293T cells (American Type Culture Collection) were cultured in high-glucose Dulbecco’s modified Eagle’s medium (DMEM; Sigma-Aldrich, USA) supplemented with 10% fetal calf serum (Sigma-Aldrich, USA), and 50 units/ml penicillin as well as 50 μg/ml streptomycin (Sigma-Aldrich, USA). Cells were cultured in a humidified atmosphere of 5% CO2 at 37 °C. Cells plated in DMEM were transfected using Lipofectamine 2000 (Invitrogen; Thermo Fisher Scientific, USA). Stable cells were selected in DMEM containing 1 μg/ml puromycin (EMD Millipore, USA). Monoclonal lines were generated by fluorescence-activated cell sorting of a polyclonal cell population in 96-well plates using a MoFlo XDP cell sorter (Beckman Coulter, USA). Finally, the clonal cell line B5 was selected from among 24 clonal cell lines and is referred to as αSynA53T–YFP cells. Peptides were incubated with 1.5% Lipofectamine 2000 in OptiMEM for 2 h at room temperature. […] On day 3 the cells were imaged with an IN Cell Analyzer 6500HS System (Cytiva, USA) using the blue and green fluorescence channel, and analyzed using IN Carta Image Analysis Software (Cytiva, USA) after an algorithm was established to identify intracellular aggregates in living cells. For each condition, we used four wells and took 16 images per well, which were analyzed by a fully automated algorithm to avoid bias. […]

[2] = test system: α-synA53T–YFP cells (HEK293T)
monomeric α-syn = test: Affinity of negative-control peptide to monomeric α-syn (method not given); format: binding; details: negative-control peptide kgvgnleyqlwalegk-NH2; method not stated

## ihyawtphtkhmqewe-NH2 [SVD-1_scrambled, reference compound]
PC12 cells
  cell viability saving effect: Slight increase of cell viability saving effect

## ihyawtphtrhlqewerrrrr-NH2 [SVD-1_scrambled+5r, reference compound]
Small α-syn PFF seeds
  effect of control peptide relative to SVD-1 in seeded assay: improved effects compared to the parental sequence SVD-1 in the seeded assay

## kgvgnleyqlwalegk-NH2 [negative-control peptide, reference compound]
[1]; 25 µM peptide, transfected, then 30 nM small α-syn PFF seeds
  aggregate-positive cells: 85%
[1]; peptide transfection, then 30 nM PFF seeds
  inhibition of intracellular seeded α-syn aggregation: not
[2]
  cell viability, PFF-seeded α-synA53T–YFP cells: did not induce significantly different luminescence in comparison to unseeded cells or seeded cells without peptide treatment
Monomeric α-syn
  affinity to monomeric α-syn: no affinity to monomeric α-syn
